For this assay, the target named is T1, Human CARM1 (PRMT4) (Homo sapiens, UniProt Q86X55).
T1 construct: Flag-CARM1-His; made in house; host or cells: HEK 293F cells (BacMam baculovirus, pFastBacMam)
T1 sequence (Q86X55 2-585 isoform Q86X55-1): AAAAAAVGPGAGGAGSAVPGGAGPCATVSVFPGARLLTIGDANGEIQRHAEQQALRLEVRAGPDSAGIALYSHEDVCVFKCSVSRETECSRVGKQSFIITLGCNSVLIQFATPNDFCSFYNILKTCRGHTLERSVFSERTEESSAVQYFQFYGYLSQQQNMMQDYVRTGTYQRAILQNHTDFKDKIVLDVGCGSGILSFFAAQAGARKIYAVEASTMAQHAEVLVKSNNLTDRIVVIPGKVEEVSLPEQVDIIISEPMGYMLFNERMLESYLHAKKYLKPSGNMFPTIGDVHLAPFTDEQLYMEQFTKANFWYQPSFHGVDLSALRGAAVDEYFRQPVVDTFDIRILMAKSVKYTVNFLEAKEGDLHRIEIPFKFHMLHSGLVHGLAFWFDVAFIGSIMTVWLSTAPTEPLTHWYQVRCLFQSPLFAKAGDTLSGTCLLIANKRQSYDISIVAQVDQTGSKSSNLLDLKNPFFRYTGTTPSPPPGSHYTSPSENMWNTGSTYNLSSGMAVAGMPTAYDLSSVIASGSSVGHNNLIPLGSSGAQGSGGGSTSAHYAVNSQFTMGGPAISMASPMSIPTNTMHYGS
As to the kind of experiment: CARM1 biochemical assay (3H-SAM Flashplate, peptide substrate). As to conditions: read-out: CARM1_ IC50. An excerpt:
S-adenosylmethionine (SAM), S-adenosylhomocysteine (SAH), bicine, Tween20, dimethylsulfoxide (DMSO), bovine skin gelatin (BSG), sodium butyrate and Tris(2-carboxyethyl)phosphine hydrochloride solution (TCEP) were purchased from Sigma-Aldrich at the highest level of purity possible. ^3H-SAM was purchase from American Radiolabeled Chemicals with a specific activity of 80 Ci/mmol. 384-well streptavidin Flashplates were purchased from PerkinElmer.
Peptide representative of human histone H3 residues 16-30 was synthesized with an N-terminal linker-affinity tag motif and a C-terminal amide cap by 21st Century Biochemicals. The peptide was purified by high-performance liquid chromatography (HPLC) to greater than 95% purity and confirmed by liquid chromatography mass spectrometry (LC-MS). The sequence was Biot-Ahx-[…]-amide and contained a monomethylated arginine at position 26 (SEQ ID NO.: 14).
Human CARM1 (PRMT4) (NM_199141.1) transcript clone was amplified from an HEK 293 cDNA library, incorporating a flanking 5′ sequence encoding a FLAG tag ([…]) (SEQ ID NO.: 6) fused directly to Ala 2 of CARM1 and 3′ sequence encoding a hexa His sequence ([…]) (SEQ ID NO.: 15) fused directly to Ser 608. The gene sequence encoding isoform1 containing a deletion of amino acids 539-561 was amplified subsequently and subcloned into pFastBacMam (Viva Biotech).
Recombinant baculovirus were generated according to Bac-to-Bac kit instructions (Life Technologies). […] Infections were carried out at 37° C. for 48 hours, harvested by centrifugation, and stored at −80° C. for purification.
Column was washed with 500 mM NaCl in buffer A and Flag-CARM1-His was eluted with 200 ug/ml FLAG peptide in buffer A. Pooled fractions were dialyzed in 20 mM Tris, 150 mM NaCl, 5% glycerol and 1 mM DTT, pH 7.8. The purity of recovered protein was 94.
General Procedure for CARM1 Enzyme Assays on Peptide Substrates.
The assays were all performed in a buffer consisting of 20 mM Bicine (pH=7.6), 1 mM TCEP, 0.005% BSG, and 0.002% Tween 20, prepared on the day of use. Compounds in 100% DMSO (1 ul) were spotted into a polypropylene 384-well V-bottom plates (Greiner) using a Platemate Plus outfitted with a 384-channel head (Thermo Scientific). DMSO (1 ul) was added to Columns 11, 12, 23, 24, rows A-H for the maximum signal control and 1 ul of SAH, a known product and inhibitor of CARM1, was added to columns 11, 12, 23, 24, rows I-P for the minimum signal control. A cocktail (40 ul) containing the CARM1 enzyme was added by Multidrop Combi (Thermo-Fisher). The compounds were allowed to incubate with CARM1 for 30 min at room temperature, then a cocktail (10 ul) containing ^3H-SAM and peptide was added to initiate the reaction (final volume=51 ul). The final concentrations of the components were as follows: CARM1 was 0.25 nM, ^3H-SAM was 30 nM, peptide was 250 nM, SAH in the minimum signal control wells was 1 mM, and the DMSO concentration was 2%. The assays were stopped by the addition of non-radiolabeled SAM (10 ul) to a final concentration of 300 uM, which dilutes the ^3H-SAM to a level where its incorporation into the peptide substrate is no longer detectable. 50 ul of the reaction in the 384-well polypropylene plate was then transferred to a 384-well Flashplate and the biotinylated peptides were allowed to bind to the streptavidin surface for at least 1 hour before being washed once with 0.1% Tween20 in a Biotek ELx405 plate washer. The plates were then read in a PerkinElmer TopCount plate reader to measure the quantity of ^3H-labeled peptide bound to the Flashplate surface, measured as disintegrations per minute (dpm) or alternatively, referred to as counts per minute (cpm).
Where dpm=disintegrations per minute, cmpd=signal in assay well, and min and max are the respective minimum and maximum signal controls.
Where top and bottom are the normally allowed to float, but may be fixed at 100 or 0 respectively in a 3-parameter fit. […]
Take `CNCCN(C)Cc1cccc(-c2cc(C(=O)NCC3CCOCC3)c3cnn(CC4CC4)c3n2)c1` [Compound 285]: the IC50 came to 139 nM.
With `CNCCN(C)Cc1cccc(-c2cc(C(=O)N[C@@H](C)c3ccccc3)c3cn(Cc4ccccc4)nc3n2)c1` [Compound 213] the figure was 25.4 nM; with `CNCCN(C)Cc1cccc(-c2cc(C(=O)NCC3COC3)c3cnn(C(C)C)c3n2)c1` [Compound 219], 31.6 nM; with `CNCCN(C)Cc1cccc(-c2cc(C(=O)N[C@@H](C)c3ccccc3)c3cnn(Cc4cccnc4)c3n2)c1` [Compound 249], 57.3 nM.
To `CNCCN(C)Cc1cccc(-c2cc(Nc3ccncc3)c3cnn(C(C)C)c3n2)c1` [Compound 191] belongs 12.9 nM; to `CNCCN(C)Cc1cccc(-c2cc(C(=O)N[C@@H](C)c3ccccc3)c3cnn(Cc4ccccn4)c3n2)c1` [Compound 225], 38.1 nM.
On to `CNCCN(C)Cc1cccc(-c2cc(C(=O)NCC3CCOCC3)c3cnn(CC#N)c3n2)c1` [Compound 306], for which the half-maximal inhibitory concentration (IC50) is 243 nM.
Consider `CNCCN(C)Cc1cccc(-c2cc(C(=O)NC3CCOCC3)c3cnn(CC4CC4)c3n2)c1` [Compound 314], for which the half-maximal inhibitory concentration (IC50) is 334 nM.
As to `CNCCN(C)Cc1cccc(-c2cc(CN(C)OC)c3cnn(C(C)C)c3n2)c1` [Compound 264], the half-inhibitory concentration (IC50) was found to be 74.1 nM.
With `CNCCN(C)Cc1cccc(-c2cc(-c3ccncc3)c3cnn(C(C)C)c3n2)c1` [Compound 196], the 50% inhibitory concentration (IC50) turned out to be 14.3 nM.
Turning to `CNCCN(C)Cc1cccc(-c2cc(N3CCCCC3)c3cnn(C(C)C)c3n2)c1` [Compound 177], the IC50 stood at 7.35 nM.
Take `CNCCN(C)Cc1cccc(-c2cc(C(=O)N[C@@H](C)c3ccccc3)c3cn(Cc4ccncc4)nc3n2)c1` [Compound 216]: the concentration for half-maximal inhibition (IC50) came to 29.9 nM.
`CNCCN(C)Cc1cccc(-c2cc(OCC3CC3)c3cnn(C(C)C)c3n2)c1` [Compound 203]: the IC50 was found to be 19.2 nM.
With `CNCCN(C)Cc1cccc(-c2cc(-c3csc(C)n3)c3cnn(C(C)C)c3n2)c1` [Compound 178] the figure was 7.51 nM.
Consider `Cc1cc(C)c(CNC(=O)c2cc(-c3cccc(CNCCN(C)C)c3)nc3c2cnn3C(C)C)c(=O)[nH]1` [Compound 369], for which the IC50 came out at 501 nM.
Turning to `CNCCN(C)Cc1cccc(-c2cc(-c3cn[nH]c3)c3cnn(C(C)C)c3n2)c1` [Compound 192], the IC50 came out at 13.1 nM.
Regarding `CCOC(=O)c1cc(-c2cccc(CN(C)CCNC)c2)nc2c1cnn2CC(F)(F)F` [Compound 316], the IC50 was found to be 379 nM.
For the molecule `Cc1c(C(=O)NCC2CCOCC2)cc(-c2cccc(CN(C)CCN)c2)cc1N(C)CC1CC1` [Compound 267], the half-inhibitory concentration (IC50) stood at 75.2 nM.
`CNCCN(C)Cc1cccc(-c2cc(C(=O)NC(C)c3ccccc3)c3cn(C4CCOCC4)nc3n2)c1` (stereo not drawn) [Compound 312]: the IC50 came out at 311 nM.
Regarding `CNCCN(C)Cc1cccc(-c2cc(C(=O)N3Cc4ccccc4C3)c3cnn(C(C)C)c3n2)c1` [Compound 291], the IC50 amounted to 168 nM.
To `CNCCN(C)Cc1cccc(-c2cc(C(=O)N(C)C3CCOCC3)c3cnn(C(C)C)c3n2)c1` [Compound 320] belongs 410 nM; to `CNCCN(C)Cc1cccc(-c2cc(NCC3CC3)c3cnn(C(C)C)c3n2)c1` [Compound 226], 39.5 nM; to `CNCCN(C)Cc1cccc(-c2cc(C(=O)NCC3CCOCC3)c3cnn(Cc4cccnc4)c3n2)c1` [Compound 317], 386 nM.
To `CC(C)n1cc2c(C(=O)NC3CCOCC3)cc(-c3cccc(CN(C)CCN)c3)nc2n1` [Compound 308] belongs 254 nM.
To `Cc1cc(CNC(=O)c2cc(-c3cccc(CN(C)CCN)c3)nc3c2cnn3C(C)C)no1` [Compound 184] belongs 11.7 nM; to `CNCCN(C)Cc1cccc(-c2cc(C(=O)N[C@@H](C)c3ccccc3)c3cn(Cc4ccccc4F)nc3n2)c1` [Compound 305], 240 nM.
`Cc1cc(C)c(CNC(=O)c2cc(-c3cc(CN(C)CCN)ccc3C)cc3c2cnn3C(C)C)c(=O)[nH]1` [Compound 389]: the half-maximal inhibitory concentration (IC50) worked out at 232 nM.

One may read the IC50 as the concentration at which inhibition is half-maximal.

Values taken from patent publication US20170280720A1, “ARGININE […] INHIBITORS AND USES THEREOF” (EPIZYME, INC., priority 2014, published 2017).
